# Reference: patent US3978210A, “Antibiotic aculeacins” (Toyo Jozo Kabushiki Kaisha, priority 1974, dated 1976)
# How the values were obtained:
# [1] = system: Torula utilis; assay: Activity against yeasts, minimum inhibitory concentration; type: cell-based; settings: Sabroud agar, 30°C., 48 hours
# Method: (§1) 2. Activity against yeasts:
# (§2) Assay medium: Sabroud agar, at 30°C., for 48 hours.
# [2] = system: Mycotorula japonica; assay: as above; type: cell-based; settings: Sabroud agar, 30°C., 48 hours
# Method: as §1, §2
# [3] = system: Saccharomyces cerevisiae; assay: as above; type: cell-based; settings: Sabroud agar, 30°C., 48 hours
# Method: as §1, §2
# [4] = system: Cryptococcus neoiormans; assay: as above; type: cell-based; settings: Sabroud agar, 30°C., 48 hours
# Method: as §1, §2
# [5] = system: Saccharomyces sake; assay: as above; type: cell-based; settings: Sabroud agar, 30°C., 48 hours
# Method: as §1, §2
# [6] = system: Candida parakrusei; assay: as above; type: cell-based; settings: Sabroud agar, 30°C., 48 hours
# Method: as §1, §2
# [7] = system: Candida krusei; assay: as above; type: cell-based; settings: Sabroud agar, 30°C., 48 hours
# Method: as §1, §2
# [8] = system: Candida tropicalis; assay: as above; type: cell-based; settings: Sabroud agar, 30°C., 48 hours
# Method: as §1, §2
# [9] = system: Candida pseudotropicalis; assay: as above; type: cell-based; settings: Sabroud agar, 30°C., 48 hours
# Method: as §1, §2
# [10] = system: Candida quilliermondii; assay: as above; type: cell-based; settings: Sabroud agar, 30°C., 48 hours
# Method: as §1, §2
# [11] = system: Sclerotium bataticola; assay: Activity against fungi, giant colony growth inhibition; type: cell-based; settings: Sabroud agar, 26°C., 7 to 14 days
# Method: (§3) 3. Activity against fungi:
# (§4) Since aculeacins have no fungicidal activity, fungi are inoculated in Sabroud agar medium containing several concentrations of aculeacins, and incubated at 26°C. 7 to 14 days. 80% growth inhibitory concentrations of aculeacins are measured by the ratio of area of giant colony to that of control without aculeacins.
# [12] = system: Collectotrichum linicolum; assay: as above; type: cell-based; settings: Sabroud agar, 26°C., 7 to 14 days
# Method: as §3, §4
# [13] = system: Corynespora cassicola; assay: as above; type: cell-based; settings: Sabroud agar, 26°C., 7 to 14 days
# Method: as §3, §4
# [14] = system: Diaporthe phaseolorum; assay: as above; type: cell-based; settings: Sabroud agar, 26°C., 7 to 14 days
# Method: as §3, §4
# [15] = system: Trichophyton rubrum; assay: as above; type: cell-based; settings: Sabroud agar, 26°C., 7 to 14 days
# Method: as §3, §4
# [16] = system: Microsporum gypseum; assay: as above; type: cell-based; settings: Sabroud agar, 26°C., 7 to 14 days
# Method: as §3, §4
# [17] = system: Trichophyton asteroides; assay: as above; type: cell-based; settings: Sabroud agar, 26°C., 7 to 14 days
# Method: as §3, §4
# [18] = system: Ascochyta soyaecola; assay: as above; type: cell-based; settings: Sabroud agar, 26°C., 7 to 14 days
# Method: as §3, §4
# [19] = system: Cercospora kikuchii; assay: as above; type: cell-based; settings: Sabroud agar, 26°C., 7 to 14 days
# Method: as §3, §4
# [20] = system: Aspergillus fumigatus; assay: as above; type: cell-based; settings: Sabroud agar, 26°C., 7 to 14 days
# Method: as §3, §4
# [21] = system: Glomerella cingulata; assay: as above; type: cell-based; settings: Sabroud agar, 26°C., 7 to 14 days
# Method: as §3, §4
# [22] = system: Fusarium oxysporum f. lini; assay: as above; type: cell-based; settings: Sabroud agar, 26°C., 7 to 14 days
# Method: as §3, §4
# [23] = system: Helminthosporium oryzae; assay: as above; type: cell-based; settings: Sabroud agar, 26°C., 7 to 14 days
# Method: as §3, §4
# [24] = system: Candida albicans; assay: Activity against yeasts, minimum inhibitory concentration; type: cell-based; design: unit not given here; settings: Sabroud agar, 30°C., 48 hours
# Method: as §1, §2
# [25] = system: mouse; assay: Acute toxicity on mouse, LD50; type: in vivo
# From the text: 4. Acute toxicity on mouse:
# Aculeacins are almost insoluble in water, soluble in 1% sodium carboxy-methyl cellulose (CMC) solution and sodium deoxycholate (DOC). LD50 of aculeacin-A injection prepared by using those additives is as follows: […]
substance,measurement,setting,value
Aculeacin-A,minimum inhibitory concentration,[1],< 0.1
same,minimum inhibitory concentration,[2],< 0.1
same,minimum inhibitory concentration,[3],1.6
same,minimum inhibitory concentration,[4],> 100
same,minimum inhibitory concentration,[5],1.6
same,minimum inhibitory concentration,[6],3.2
same,minimum inhibitory concentration,[7],0.8
same,minimum inhibitory concentration,[8],> 100
same,minimum inhibitory concentration,[9],0.8
same,minimum inhibitory concentration,[10],0.8
same,80% growth inhibitory concentration,[11],0.08 gamma/ml.
same,80% growth inhibitory concentration,[12],0.4 gamma/ml.
same,80% growth inhibitory concentration,[13],2.0 gamma/ml.
same,80% growth inhibitory concentration,[14],0.01 gamma/ml.
same,80% growth inhibitory concentration,[15],0.006 gamma/ml.
same,80% growth inhibitory concentration,[16],0.008 gamma/ml.
same,80% growth inhibitory concentration,[17],0.004 gamma/ml.
same,80% growth inhibitory concentration,[18],0.08 gamma/ml.
same,80% growth inhibitory concentration,[19],4.0 gamma/ml.
same,80% growth inhibitory concentration,[20],0.5 gamma/ml.
same,80% growth inhibitory concentration,[21],0.06 gamma/ml.
same,80% growth inhibitory concentration,[22],2.0 gamma/ml.
same,80% growth inhibitory concentration,[23],0.008 gamma/ml.
same,minimum inhibitory concentration,[24]; Candida albicans 1,0.2
same,minimum inhibitory concentration,[24]; Candida albicans 2,< 0.1
same,minimum inhibitory concentration,[24]; Candida albicans 3,< 0.1
same,minimum inhibitory concentration,[24]; Candida albicans 4,0.2
same,minimum inhibitory concentration,[24]; Candida albicans 5,1.6
same,minimum inhibitory concentration,[24]; Candida albicans 6,< 0.1
same,minimum inhibitory concentration,[24]; Candida albicans 7,3.2
same,minimum inhibitory concentration,[24]; Candida albicans 8,0.1
same,LD50,"[25]; i.m., in CMC",> 3460 mg/kg
same,LD50,"[25]; i.m., in DOC",600 mg/kg
same,LD50,"[25]; i.p., in CMC",600 mg/kg
same,LD50,"[25]; i.v., in DOC",350 mg/kg
same,LD50,"[25]; p.o., in CMC",> 3000 mg/kg
